In ChEMBL document CHEMBL1821658, “Synthesis, antimicrobial evaluation and QSAR analysis of novel nalidixic acid based 1,2,4-triazole derivatives” (2011):
Values after ≈ are worked out from the molar mass of the structure shown.

Experiments:
Format in all cases: functional
Escherichia coli = test: Antibacterial activity against Escherichia coli ATCC 8739 after 24 hrs by broth micro dilution assay; details: ATCC 8739, 24 h
Bacillus subtilis = test: Antibacterial activity against Bacillus subtilis ATCC 12711 after 24 hrs by broth micro dilution assay; details: ATCC 12711, 24 h
Klebsiella pneumoniae = test: Antibacterial activity against Klebsiella pneumoniae ATCC 31488 after 24 hrs by broth micro dilution assay; details: ATCC 31488, 24 h
Pseudomonas aeruginosa = test: Antibacterial activity against Pseudomonas aeruginosa ATCC 9027 after 24 hrs by broth micro dilution assay; details: ATCC 9027, 24 h
Aspergillus niger = test: Antifungal activity against Aspergillus niger by food poison technique; details: read-out: ED50 (the source's name)
Fusarium oxysporum = test: Antifungal activity against Fusarium oxysporum by food poison technique; details: read-out: ED50 (the source's name)
Staphylococcus aureus = test: Antibacterial activity against Staphylococcus aureus ATCC 2937 after 24 hrs by broth micro dilution assay; details: ATCC 2937, 24 h

| SMILES | MIC90 (Escherichia coli) [µg/mL] | MIC90 (Bacillus subtilis) [µg/mL] | MIC90 (Klebsiella pneumoniae) [µg/mL] | MIC90 (Pseudomonas aeruginosa) [µg/mL] | MIC90 (Staphylococcus aureus) [µg/mL] | EC50 (Aspergillus niger) [µg/mL] | EC50 (Fusarium oxysporum) [µg/mL] |
| --- | --- | --- | --- | --- | --- | --- | --- |
| CCn1cc(-c2nnc(S)n2/N=C/c2ccc(Br)cc2)c(=O)c2ccc(C)nc21 | 250 (≈ 533 µM) | 250 (≈ 533 µM) | 250 (≈ 533 µM) | 62 (≈ 132 µM) | 125 (≈ 266 µM) | 144 (≈ 306 µM) | 107 (≈ 227 µM) |
| CCn1cc(-c2nnc(S)n2/N=C/c2ccccc2)c(=O)c2ccc(C)nc21 | 16 (≈ 41 µM) | 250 (≈ 640 µM) | 16 (≈ 41 µM) | 16 (≈ 41 µM) | 250 (≈ 640 µM) | 77.7 (≈ 199 µM) | 78.2 (≈ 200 µM) |
| CCn1cc(-c2nnc(S)n2/N=C/c2ccc(F)cc2)c(=O)c2ccc(C)nc21 | 250 (≈ 612 µM) | 63 (≈ 154 µM) | 250 (≈ 612 µM) | 16 (≈ 39.2 µM) | 125 (≈ 306 µM) | 134 (≈ 327 µM) | 163 (≈ 400 µM) |
| CCn1cc(-c2nnc(S)n2/N=C/c2ccc(Cl)cc2)c(=O)c2ccc(C)nc21 | 250 (≈ 588 µM) | 16 (≈ 37.7 µM) | 250 (≈ 588 µM) | 16 (≈ 37.7 µM) | 125 (≈ 294 µM) | 120 (≈ 282 µM) | 79.5 (≈ 187 µM) |
| CCn1cc(-c2nnc(S)n2/N=C/c2ccc(C#N)cc2)c(=O)c2ccc(C)nc21 | 125 (≈ 301 µM) | 63 (≈ 152 µM) | 63 (≈ 152 µM) | 63 (≈ 152 µM) | 63 (≈ 152 µM) | 156 (≈ 376 µM) | 177 (≈ 426 µM) |
| CCn1cc(-c2nnc(S)n2/N=C/c2ccc(OC)cc2)c(=O)c2ccc(C)nc21 | 250 (≈ 595 µM) | 16 (≈ 38.1 µM) | 31 (≈ 73.7 µM) | 16 (≈ 38.1 µM) | 125 (≈ 297 µM) | 105 (≈ 249 µM) | 152 (≈ 362 µM) |
| CCOc1ccc(/C=N/n2c(S)nnc2-c2cn(CC)c3nc(C)ccc3c2=O)cc1 | 125 (≈ 288 µM) | 63 (≈ 145 µM) | 63 (≈ 145 µM) | 63 (≈ 145 µM) | 125 (≈ 288 µM) | 86.6 (≈ 199 µM) | 89.3 (≈ 206 µM) |
| CCn1cc(-c2nnc(S)n2/N=C/c2ccc(C)cc2)c(=O)c2ccc(C)nc21 | 125 (≈ 309 µM) | 125 (≈ 309 µM) | 63 (≈ 156 µM) | 63 (≈ 156 µM) | 63 (≈ 156 µM) | 76.6 (≈ 189 µM) | 205 (≈ 507 µM) |
| CCn1cc(-c2nnc(S)n2/N=C/c2ccc(C(C)C)cc2)c(=O)c2ccc(C)nc21 | 250 (≈ 578 µM) | 16 (≈ 37 µM) | 125 (≈ 289 µM) | 16 (≈ 37 µM) | 63 (≈ 146 µM) | 113 (≈ 262 µM) | 106 (≈ 246 µM) |
| CCn1cc(-c2nnc(S)n2/N=C/c2ccc(N(C)C)cc2)c(=O)c2ccc(C)nc21 | 63 (≈ 145 µM) | 16 (≈ 36.9 µM) | 63 (≈ 145 µM) | 16 (≈ 36.9 µM) | 125 (≈ 288 µM) | 101 (≈ 233 µM) | 104 (≈ 239 µM) |
| CCn1cc(-c2nnc(S)n2/N=C/c2ccc(Cl)cc2Cl)c(=O)c2ccc(C)nc21 | 250 (≈ 544 µM) | 125 (≈ 272 µM) | 250 (≈ 544 µM) | 63 (≈ 137 µM) | 125 (≈ 272 µM) | 502 (≈ 1090 µM) | 103 (≈ 224 µM) |
| CCn1cc(-c2nnc(S)n2/N=C/c2c(Cl)cccc2Cl)c(=O)c2ccc(C)nc21 | 16 (≈ 34.8 µM) | 31 (≈ 67.5 µM) | 125 (≈ 272 µM) | 63 (≈ 137 µM) | 125 (≈ 272 µM) | 101 (≈ 221 µM) | 112 (≈ 245 µM) |
| CCn1cc(-c2nnc3sc(-c4cccc(Cl)c4)nn23)c(=O)c2ccc(C)nc21 | 63 (≈ 149 µM) | 31 (≈ 73.3 µM) | 63 (≈ 149 µM) | 63 (≈ 149 µM) | 63 (≈ 149 µM) | 144 (≈ 342 µM) | 103 (≈ 243 µM) |
| CCn1cc(-c2nnc(S)n2NC(=O)c2ccccc2)c(=O)c2ccc(C)nc21 | 63 (≈ 155 µM) | 63 (≈ 155 µM) | 63 (≈ 155 µM) | 63 (≈ 155 µM) | 63 (≈ 155 µM) | 88.5 (≈ 218 µM) | 110 (≈ 270 µM) |
| CCn1cc(-c2nnc3sc(=O)c(=O)[nH]n23)c(=O)c2ccc(C)nc21 | 125 (≈ 351 µM) | 125 (≈ 351 µM) | 63 (≈ 177 µM) | 125 (≈ 351 µM) | 250 (≈ 702 µM) | 348 (≈ 975 µM) | 164 (≈ 461 µM) |
| O=C(O)c1cn(C2CC2)c2cc(N3CCNCC3)c(F)cc2c1=O [CIPROFLOXACIN] | 12.5 (≈ 37.7 µM) | 12.5 (≈ 37.7 µM) | 2.5 (≈ 7.54 µM) | 1.25 (≈ 3.77 µM) | 10 (≈ 30.2 µM) |  |  |

Now from value to compound, other results behind:

| MIC90 (Escherichia coli) [µg/mL] | MIC90 (Bacillus subtilis) [µg/mL] | MIC90 (Klebsiella pneumoniae) [µg/mL] | MIC90 (Pseudomonas aeruginosa) [µg/mL] | MIC90 (Staphylococcus aureus) [µg/mL] | SMILES | EC50 (Aspergillus niger) [µg/mL] | EC50 (Fusarium oxysporum) [µg/mL] |
| --- | --- | --- | --- | --- | --- | --- | --- |
| 125 (≈ 413 µM) | 63 (≈ 208 µM) | 63 (≈ 208 µM) | 63 (≈ 208 µM) | 63 (≈ 208 µM) | CCn1cc(-c2nnc(S)n2N)c(=O)c2ccc(C)nc21 | 567 (≈ 1880 µM) | 382 (≈ 1260 µM) |
| 125 (≈ 266 µM) | 16 (≈ 34.1 µM) | 31 (≈ 66 µM) | 16 (≈ 34.1 µM) | 125 (≈ 266 µM) | CCn1cc(-c2nnc(S)n2/N=C/c2cccc(Br)c2)c(=O)c2ccc(C)nc21 | 111 (≈ 237 µM) | 74.1 (≈ 158 µM) |
| 125 (≈ 287 µM) | 125 (≈ 287 µM) | 250 (≈ 574 µM) | 63 (≈ 145 µM) | 125 (≈ 287 µM) | CCn1cc(-c2nnc(S)n2/N=C/c2cccc([N+](=O)[O-])c2)c(=O)c2ccc(C)nc21 | 161 (≈ 369 µM) | 138 (≈ 317 µM) |
| 125 (≈ 287 µM) | 125 (≈ 287 µM) | 63 (≈ 145 µM) | 63 (≈ 145 µM) | 125 (≈ 287 µM) | CCn1cc(-c2nnc(S)n2/N=C/c2ccc([N+](=O)[O-])cc2)c(=O)c2ccc(C)nc21 | 149 (≈ 342 µM) | 100 (≈ 230 µM) |
| 250 (≈ 545 µM) | 63 (≈ 137 µM) | 125 (≈ 273 µM) | 63 (≈ 137 µM) | 250 (≈ 545 µM) | CCn1cc(-c2nnc(S)n2/N=C/c2ccc(C(F)(F)F)cc2)c(=O)c2ccc(C)nc21 | 299 (≈ 652 µM) | 101 (≈ 220 µM) |
| 125 (≈ 308 µM) | 125 (≈ 308 µM) | 125 (≈ 308 µM) | 63 (≈ 155 µM) | 125 (≈ 308 µM) | CCn1cc(-c2nnc(S)n2/N=C/c2ccc(O)cc2)c(=O)c2ccc(C)nc21 | 549 (≈ 1350 µM) | 203 (≈ 500 µM) |
| 250 (≈ 597 µM) | 63 (≈ 151 µM) | 63 (≈ 151 µM) | 63 (≈ 151 µM) | 63 (≈ 151 µM) | CCc1ccc(/C=N/n2c(S)nnc2-c2cn(CC)c3nc(C)ccc3c2=O)cc1 | 229 (≈ 547 µM) | 191 (≈ 456 µM) |
| 63 (≈ 141 µM) | 31 (≈ 69.4 µM) | 63 (≈ 141 µM) | 63 (≈ 141 µM) | 125 (≈ 280 µM) | CCn1cc(-c2nnc(S)n2/N=C/c2ccc(C(C)(C)C)cc2)c(=O)c2ccc(C)nc21 | 134 (≈ 299 µM) | 117 (≈ 262 µM) |
| 250 (≈ 573 µM) | 125 (≈ 286 µM) | 63 (≈ 144 µM) | 63 (≈ 144 µM) | 250 (≈ 573 µM) | CCn1cc(-c2nnc(S)n2/N=C/c2ccc(SC)cc2)c(=O)c2ccc(C)nc21 | 251 (≈ 574 µM) | 104 (≈ 239 µM) |
| 63 (≈ 162 µM) | 125 (≈ 322 µM) | 125 (≈ 322 µM) | 63 (≈ 162 µM) | 63 (≈ 162 µM) | CCn1cc(-c2nnc3sc(-c4ccccc4)nn23)c(=O)c2ccc(C)nc21 | 79.6 (≈ 205 µM) | 103 (≈ 265 µM) |
| 16 (≈ 37.8 µM) | 16 (≈ 37.8 µM) | 16 (≈ 37.8 µM) | 16 (≈ 37.8 µM) | 16 (≈ 37.8 µM) | CCn1cc(-c2nnc3sc(-c4ccccc4Cl)nn23)c(=O)c2ccc(C)nc21 | 75.5 (≈ 178 µM) | 86.6 (≈ 205 µM) |
| 63 (≈ 149 µM) | 63 (≈ 149 µM) | 125 (≈ 296 µM) | 125 (≈ 296 µM) | 63 (≈ 149 µM) | CCn1cc(-c2nnc3sc(-c4ccc(Cl)cc4)nn23)c(=O)c2ccc(C)nc21 | 514 (≈ 1210 µM) | 121 (≈ 287 µM) |
| 125 (≈ 288 µM) | 125 (≈ 288 µM) | 125 (≈ 288 µM) | 63 (≈ 145 µM) | 125 (≈ 288 µM) | CCn1cc(-c2nnc3sc(-c4cccc([N+](=O)[O-])c4)nn23)c(=O)c2ccc(C)nc21 | 71 (≈ 164 µM) | 148 (≈ 342 µM) |
| 31 (≈ 67.8 µM) | 63 (≈ 138 µM) | 63 (≈ 138 µM) | 63 (≈ 138 µM) | 125 (≈ 273 µM) | CCn1cc(-c2nnc3sc(-c4cccc(Cl)c4Cl)nn23)c(=O)c2ccc(C)nc21 | 109 (≈ 239 µM) | 96.9 (≈ 212 µM) |
| 63 (≈ 183 µM) | 125 (≈ 363 µM) | 63 (≈ 183 µM) | 31 (≈ 90 µM) | 250 (≈ 726 µM) | CCn1cc(-c2nnc3sc(S)nn23)c(=O)c2ccc(C)nc21 | 92.7 (≈ 269 µM) | 267 (≈ 775 µM) |
| 63 (≈ 183 µM) | 63 (≈ 183 µM) | 31 (≈ 90 µM) | 250 (≈ 726 µM) | 63 (≈ 183 µM) | CCn1cc(-c2nnc(S)n2NC(C)=O)c(=O)c2ccc(C)nc21 | 111 (≈ 322 µM) | 166 (≈ 481 µM) |
| 125 (≈ 311 µM) | 125 (≈ 311 µM) | 63 (≈ 157 µM) | 125 (≈ 311 µM) | 63 (≈ 157 µM) | CCn1cc(-c2nnc3n2N=C(c2ccccc2)CS3)c(=O)c2ccc(C)nc21 | 148 (≈ 369 µM) | 144 (≈ 359 µM) |
| 63 (≈ 219 µM) | 31 (≈ 108 µM) | 63 (≈ 219 µM) | 125 (≈ 435 µM) | 63 (≈ 219 µM) | CCn1cc(-c2nnc(S)[nH]2)c(=O)c2ccc(C)nc21 | 76 (≈ 265 µM) | 111 (≈ 387 µM) |
| 13 (≈ 22.4 µM) | 5 (≈ 8.6 µM) | 2 (≈ 3.44 µM) | 4 (≈ 6.88 µM) | 15 (≈ 25.8 µM) | CN[C@@H]1[C@H](O[C@H]2[C@H](O[C@H]3[C@H](O)[C@@H](O)[C@H](N=C(N)N)[C@@H](O)[C@@H]3N=C(N)N)O[C@@H](C)[C@]2(O)C=O)O[C@@H](CO)[C@H](O)[C@H]1O [STREPTOMYCIN] |  |  |
